Results taken from patent US5162571A, “Phenol derivatives, their production and use” (Takeda Chemical Industries, Ltd., priority 1987, dated 1992).
pIC50: −log10 of the molar value.

Columns and labels:
[1] = system: lipid peroxides production in rat brain homogenates; assay: Inhibitory action on lipid peroxides production in rat brain homogenates; assay type: biochemical; conditions: 10^-5 M
Procedure: Inhibitory action on lipid peroxides production in rat brain homogenates
Method: The male SD rat brain tissue was used as 5% homogenate in phosphate-buffered solution. After incubation of the homogenate for 1 hour at 37° C., the amount of lipid peroxides produced was determined by the thiobarbituric acid method according to the description of Ohkawa et al. (Analytical Biochemistry, 95: 551, 1979)
Test compounds were used as a solution of dimethylsulfoxide. The inhibitory action on lipid peroxide production was expressed as a % inhibition as compared with the amount of production in the vehicle group.

[2] = target: T1, specific [^3 H] U-46619 binding to guinea pig platelet membrane (Cavia porcellus, UniProt A0A286Y4I8); assay: Inhibition of specific [^3 H] U-46619 binding to guinea pig platelet membrane; conditions: [^3 H] U-46619, 25° C., 30 min; read-out: IC50 (Concentration for 50% inhibition)
T1 construct: Platelet membranes were prepared according to the following procedure; from tissue; host or cells: guinea pig platelet membranes
T1 sequence (A0A286Y4I8 1-347): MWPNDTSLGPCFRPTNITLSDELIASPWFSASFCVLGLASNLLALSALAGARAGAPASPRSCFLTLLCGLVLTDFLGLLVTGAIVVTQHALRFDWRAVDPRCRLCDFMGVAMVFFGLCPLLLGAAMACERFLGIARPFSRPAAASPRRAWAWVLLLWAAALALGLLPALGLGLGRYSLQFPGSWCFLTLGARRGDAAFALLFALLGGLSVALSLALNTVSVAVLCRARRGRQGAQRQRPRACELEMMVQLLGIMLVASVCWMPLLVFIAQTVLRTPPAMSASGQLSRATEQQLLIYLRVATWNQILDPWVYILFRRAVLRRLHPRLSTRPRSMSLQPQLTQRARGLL
Procedure: Inhibition of specific [^3 H] U-46619 binding to guinea pig platelet membrane
Method: Blood from normal guinea pig was collected into 0.315% citrate solution containing aspirin (final concentration 1 mM) and was centrifuged at 3000 r.p.m. for […]. The PRP (platelet rich plasma) was centrifuged at 4800 r.p.m for 10 min. at 4° C. Platelet membranes were prepared according to the following procedure: In order to remove the residual plasma protein, the platelet pellet was washed once with 30 ml of buffer containing 25 mM Tris-HCl/5 mM MgCl2 (pH 7.4) and recentrifuged to pellet the platelets. The platelets were then resuspended in 20 ml of the same buffer, and the cells were disrupted by sonication. The sonication was performed on ice using a Kontes Sonicator (Vineland, N.J.). The platelets were sonicated for a total of 90 sec. with a 15 sec. burst followed by a 15 sec. intermission. The sonicated mixture was centrifuged at 100,000×g for 1 hour and the membrane fraction was suspended in the same buffer. The protein concentration was adjusted to 1 mg/ml.
The binding assay was performed at 25° C. for 30 min. One ml of the resuspended membrane fraction was incubated with […] of [^3 H] U-46619. The incubation mixture was filtered through a glass fiber membrane (GF/C, whatman) to separate the membrane bound from free [^3 H] U-46619. The membranes were quickly washed twice with 5 ml of cold buffer, mixed with 4 ml of ACS scintillation fluid and counted for [^3 H] U-46619.

[3] = target: T2, Thromboxane A2 (TXA2) receptor (Oryctolagus cuniculus, UniProt Q6WQI8); assay: Thromboxane A2 (TXA2) receptor antagonism: inhibitory effect on contraction of rabbit aorta by TXA2-mimics; assay type: cell-based; conditions: U-44069 (10^-7 M)-induced contraction; for inhibition at 1 µM: 10^-6 M; for inhibition at 0.1 µM: 10^-7 M
T2 construct: contraction by TXA2 mimics U-44069 or U-46619
T2 sequence (Q6WQI8 1-233): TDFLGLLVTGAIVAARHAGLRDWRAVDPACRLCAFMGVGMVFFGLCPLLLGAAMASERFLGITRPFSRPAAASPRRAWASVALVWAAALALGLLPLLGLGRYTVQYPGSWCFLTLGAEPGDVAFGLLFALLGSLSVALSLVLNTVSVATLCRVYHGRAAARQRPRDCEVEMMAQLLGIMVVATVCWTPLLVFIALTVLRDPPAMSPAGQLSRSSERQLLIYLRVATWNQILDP
Procedure: Thromboxane A2 (TXA2) receptor antagonism
Inhibitory effect on contraction of rabbit aorta by thromboxan A2 (TXA2)-mimics
(§1) Method: A spiral strip of the rabbit aorta (2-3 mm wide, about 3 cm long) was suspended in Krebs-Henseleit solution under the load of 2 g. The Krebs-Henseleit solution was saturated with a mixed gas of 95%O2 -5%CO2 and warmed at 37° C. Inhibition of the contraction of the vascular strip caused by a TXA2 mimic substance U-44069^1) (10^-7 M) or U-46619^2) (3×10 ^-8 M), by pretreatment with Compound No. 13 30 minutes before was studied.
1) U-44069: (5Z, 9α, 11α, 13E, 15S)-15-hydroxy-9,11-(epoxymethano)-prosta-5,13-dienoic acid (manufacturedby The Upjohn Company in U.S.A.)
2) U-46619: (5Z, 9α, 11α, […], 15S)-15-hydroxy-11,9-(epoxymethano)-prosta-5,13-dienoic acid (manufacturedby Cayman Chemical Company)
In Table 5, "*" represents addition of U-46619.

[4] = system: chorioallantoic membrane; assay: Angiogenesis inhibitory activity, shell-less chorioallantoic membrane (CAM) assay; assay type: in vivo, chick; conditions: 6 disks tested
Procedure: Angiogenesis inhibitory activity
Method: Shell-less chorioallantoic membrane assay.
The shell-less chorioallantoic membrane (CAM) assay was carried out by the method of Taylor and Folkman [S. Taylor and J. Folkman; Nature, 297, 307 (1982)] with a slight modification. Thus, 3-day chick embryos were removed from their shells and cultured in plastic cups on hammocks of plastic wrap. Samples along with ECGS (endothelial cell growth supplements, Collaborative Research Inc.) were placed on plastic disks (polypropylene, 6 mm in diameter). After the solution had dried, the disks were placed on the CAM of 10-day embryos. Three days later, inhibition of the neovascular formation by fumagillin was observed under a stereoscope (×20, SMZ-10, Nikon), and compared to the control disk containing ECGS as a stimulant of angiogenesis without samples.

[5] = system: U-46619 (TXA2 mimic)-induced broncho-constriction; assay: Inhibitory effect on U-46619 (TXA2 mimic)-induced broncho-constriction in guinea pig; assay type: in vivo; conditions: Cavia porcellus, ** p < 0.01; for inhibition in vivo at 5 mg/kg: po, 5 mg/kg p.o., 1 hour before U-46619
Procedure: Inhibitory effect on U-46619 (TXA2 mimic)-induced broncho-constrictionin guinea pig
Method: Eight male Hartley guinea pigs were used per one group. The guinea pig anesthetized with urethane (1.5 g/kg, i.p.) was fixed in a dorsal position, subjected to tracheotomy and connected to a respirator through a cannula. A side branch of the tracheal cannula was connected to a respirator (Harvard apparatus rodent respirator Type 680) at the rate of 70 strokes/min. and a constant volume of 3 to 5 ml.
Inflation pressure was kept constant at 10 cm H2 O.
After treatment with gallamine triethiodide (1 mg/kg, i.v.), U-46619 (10 μg/Kg) dissolved in a physiological saline solution was given through a carotid cannula and the airway resistance was measured by the overflow technique of Konzett-Rossler method (Konzett, H. and Rossler, R., Naunyn-Schmiedegerg's Arch, Exp. Path. Pharmak., 195, 71-74 (1940). A test compound was suspended in 5% gum arabic solution and was administered orally 1 hour before the treatment with U-46619.
Alternatively, a test compound was dissolved in aqueous 50% dimethylsulfoxide solution and administered interveneously in the dosage of 0.1 ml/100 g body weight 9 minutes before the treatment of U-46619.

[6] = Extension of bleeding time; assay type: in vivo, rat; conditions: one hour before
Procedure: Extension of bleeding time
Method: Test compounds were administered orally to rats one hour before the experiments. The rats were anesthetized and the tail was cut at 1.5 mm from the tip. Immediately, the tail was hung down into a physiological saline warmed at 37° C. The time required from initiation to stop of bleeding (bleeding time) was measured.

[7] = system: vasoconstriction by PGD2 (rabbit aorta); assay: Inhibitory effect of vasoconstriction by PGD2; assay type: cell-based; conditions: Oryctolagus cuniculus; 10^-7 M; PGD2 (3×10^-6 M); n = 2; read-out: Inhibitory Rate (%)
Procedure: Inhibitory effect of vasoconstriction by PGD2
as §1, with “95% O2 -5% CO2” for “95%O2 -5%CO2”, “addition of PGD2 (3×10^-6” for “a TXA2 mimic substance U-44069^1) (10^-7”, “M)” for “M) or U-46619^2) (3×10 ^-8 M),”

Structure (SMILES) | Inhibition (%) [1] | pIC50 [2] | inhibition at 10 µM ([3]; 10^-5 M) | inhibition at 1 µM [3] | Number of disks showing angiogenesis inhibition ([4]; 4 μg) | Number of disks showing angiogenesis inhibition ([4]; 20 μg) | inhibition in vivo at 5 mg/kg [5] | Bleeding time ([6]; 10 mg/kg oral, control 173 ± 23, * p < 0.05) | Bleeding time ([6]; 30 mg/kg oral, control 164 ± 27, ** p < 0.01) | inhibition at 0.1 µM [3] | inhibition at 0.1 µM [7] | inhibition in vivo at 0.31 mg/kg ([5]; iv, 0.31 mg/kg i.v., 9 minutes before U-46619)
Cc1cc(C)c(O)c(C(CCCCCC(=O)O)c2ccc(F)cc2)c1C (stereo not shown) [Compound 1, 7-(4-fluorophenyl)-7-(2-hydroxy-3,5,6-trimethylphenyl)heptanoic acid] | 92.0% | 6.62 | 100% | 56% | 3 | 6 | 55% | – | – | – | – | –
Cc1c(O)c(C(CCCCCC(=O)O)c2ccc(F)cc2)c(C)c2c1CCC2 (stereo not shown) [Compound 21] | – | 7.31 | – | 99% | – | – | 76% | 235 ± 38 s | 529 ± 154 s | 5% | 54% | 51%
Cc1c(C)c(C=O)c(C)c(C(CCCCCC(=O)O)c2ccc(F)cc2)c1O (stereo not shown) [Compound 27, 7-(4-fluorophenyl)-7-(3-formyl-6-hydroxy-2,4,5-trimethylphenyl)heptanoic acid] | – | 8.64 | – | – | – | – | 84% | – | – | 98% | 100% | –
